Laboratory results taken from patent US20240294466A1, “SODIUM N-(8-(2- HYDROXYBENZOYL)AMINO)CAPRYLATE P[…] A” (Novo Nordisk A/S, priority 2021, published 2024).
Where two headings read alike, the source gives them in different places.

Key:
[1] = Dynamic vapour sorption (DVS) moisture uptake, method 3; assay type: physicochemical; settings: for Moisture absorption at 65% RH, Before: before heat treatment
Procedure: Moisture sorption/desorption data were measured by a Dynamic Vapour Sorption Advantage 1 from Surface Measurement Systems. Prior to analysis the samples were dried for up to about 48 h in desiccators containing phosphorus pentoxide. Approximately 20 mg of sample was placed into a balance pan and loaded into the instrument and the sample was then further dried for a minimum of 500 min in the instrument at 0% RH using a nitrogen purge. The resulting sample weight after the further drying was assigned as the 0% start weight and all weight gains and losses was calculated relative to this start weight. Sorption and desorption isotherms were collected over a range from 0 to 90% relative humidity (RH) using a nitrogen purge at 25° C. The threshold for equilibrium used for analysis was 0.002 to 0.0005 dm/dt.
Furthermore, samples were taken after 24 h of exposure at the indicated elevated temperatures and were subjected to dynamic vapor sorption measurements in accordance with method 3 to determine the hygroscopicity. The moisture uptake was measured at 65% RH. The hygroscopicity is decreased as the moisture absorbed at 65% RH decreases when exposing SNAC polymorphic form A to elevated temperatures for 24 h.

[2] = XRPD FWHM of the peak at 8.7±0.2° 2θ (degree of crystal imperfections), method 1; assay type: physicochemical; settings: for FWHM (automatic mode), XRPD peak around 8.7 ± 0.2° 2θ, Before: before heat treatment
Procedure: (§1) XRPD was performed using a Malvern Panalytical Empyrean diffractometer at ambient conditions. The diffraction pattern was measured at room temperature using an Empyrean Cu LFF HR (45 kV/40 mA) source and PIXcel3D-Medipix3 1×1 detector. The measurement was performed in the range of 2-40° 20 using a scan speed of 0.067335° 2θ/s and a step size of 0.0262606° 2θ. The samples were measured in transmission mode and with a spinner revolution time of 1 second. Approximately 200 mg of sample were placed between two sheets of Kapton Polyimide Thin-film. The measurements were performed using a Soller slit of 0.04 radians and a fixed divergence slit of 0.5° on the incident beam, and a 3 mm Anti scatter slit and a Soller slit of 0.04 radians in the diffracted beam.
The degree of crystal imperfections was assessed by use of the FWHM as more crystal imperfections might cause peak broadening and lower peak height, which leads to higher FWHM values due to fewer lattice planes with identical orientation contributing to the diffraction peak. Oppositely, in the absence of crystal imperfections, lattice planes with identical orientation increase and result in narrower and higher diffraction peaks leading to smaller FWHM values. The FWHM was calculated using the characteristic peak at 8.7±0.2° 2θ by finding the apex of the peak and measuring the height of the peak applying the x-axis as the baseline (automatic mode) (see FIG. 11) or applying a baseline spanning the two surrounding troughs (manual mode) (see FIG. 12). This value is then divided in half to find the half height. Hereafter the width of the peak at that half height is measured and reported in ° 2θ. Alternatively, the peak at 6.0±0.2° 2θ may also be used to calculate the FWHM.
(§2) Samples from a batch of SNAC polymorphic form A (Batch 5) with a FWHM of 0.97° 2θ (automatic mode) and a moisture uptake of 1.98% at 65% RH from the beginning were heated to 90, 100, 110, 120, 130, and 140° C., respectively, in a tray oven. The samples were exposed to their respective temperatures for up to 72 h. The sample size was small enough to ensure that the samples equilibrated completely, within a few of minutes, to the oven temperature. Samples were taken during the 72 h of elevated temperature exposure and subjected to XRPD measurements in accordance with method 1 to determine the polymorphic form and impact on crystal imperfections using FWHM with the x-axis as the baseline (automatic mode).
(§3) Samples from different batches of SNAC polymorphic form A were subjected to a heat treatment in a tray oven and the sample size was small enough to ensure that the samples equilibrated completely and within a couple of minutes to the oven temperature. Samples were taken from the batches before the heat treatment and after the heat treatment and subjected to XRPD measurements in accordance with method 1 to determine the polymorphic form and impact on crystal imperfections using FWHM with the x-axis as the baseline (auto mode). Furthermore, samples were also subjected to DVS measurements in accordance with method 3 to determine the impact of the heat treatment on the hygroscopicity.

[3] = Polymorphic form determined by XRPD, method 1; assay type: physicochemical; settings: after heat treatment 150° C. for 1 h
Procedure: as §1
The polymorphic form of the sample was determined by comparison of the diffractogram obtained for the sample with reference diffractograms for the SNAC polymorphs and solvates.
as §2, §3

[4] = XRPD with moisture chamber: relative humidity for onset of conversion of form A to trihydrate form F, method 2; assay type: physicochemical; settings: increasing RH at ambient conditions
Text: The moisture chamber allows for controlling the humidity and temperature of the samples during XRPD measurements.
Samples from different batches of SNAC polymorphic form A were subjected to increasing levels of relative humidity at ambient conditions inside a humidity chamber with the possibility of simultaneous determination of the polymorphic form in accordance with the XRPD method 2. The diffractograms were visually inspected for the appearance of characteristic diffraction peaks for the SNAC polymorphic form F in order to determine at which relative humidity polymorphic conversion of form A to F started.

[5] = Dynamic vapour sorption (DVS) moisture uptake, method 3; assay type: physicochemical; settings: not ground
[6] = heat treatment: None; derived from example 1 and figures of WO 2005/107462; cited from earlier work
[7] = heat treatment: None; derived from example 1 and figures of WO 2005/107462; cited from earlier work; remark: listed apart in the source
[8] = after heat treatment 115° C. for 24 h
[9] = after heat treatment 150° C. for 1 h
[10] = after heat treatment 120° C. for 20 h
[11] = after heat treatment 120° C. for 24 h
[12] = heat treatment 115° C. for 24 h
[13] = ground in a mortar with pestle for about 10 min
[14] = made per example 2 of WO 2008/028859, after drying at 90° C. for 18 h

Row | SMILES | Moisture absorption at 65% RH, Before [1] [%] | FWHM (automatic mode), XRPD peak around 8.7 ± 0.2° 2θ, Before [2] [° 2θ] | Moisture absorption at 65% RH ([1]; heat treatment: None) [%] | FWHM (manual mode) ([2]; heat treatment: None) [°2θ] | Onset of trihydrate conversion (form A to form F) ([4]; heat treatment: None) [% RH] | further results
1 | O=C([O-])CCCCCCCNC(=O)c1ccccc1O.[Na+] [Batch 1, monosodium N-[8-(2-hydroxybenzoyl)-amino]caprylate] | 2.66 | 1.08 | – | – | – | Moisture absorption at 65% RH, After [1, 8]: 1.26%; FWHM (automatic mode), XRPD peak around 8.7 ± 0.2° 2θ, After [2, 8]: 0.60 ° 2θ
2 | O=C([O-])CCCCCCCNC(=O)c1ccccc1O.[Na+] [Batch 2, monosodium N-[8-(2-hydroxybenzoyl)-amino]caprylate] | 2.90 | 1.21 | 2.90 | 0.84 | 70 | Moisture absorption at 65% RH, After [1, 9]: 1.04%; Polymorphic form, After [3]: A & B; FWHM (automatic mode), XRPD peak around 8.7 ± 0.2° 2θ, After [2, 9]: 0.42 ° 2θ
3 | O=C([O-])CCCCCCCNC(=O)c1ccccc1O.[Na+] [Batch 3, monosodium N-[8-(2-hydroxybenzoyl)-amino]caprylate] | – | – | 1.95 | 0.66 | 75 | –
4 | O=C([O-])CCCCCCCNC(=O)c1ccccc1O.[Na+] [Batch 4, monosodium N-[8-(2-hydroxybenzoyl)-amino]caprylate] | 0.83 | 0.79 | – | – | – | Moisture absorption at 65% RH, After [1, 10]: 0.84%; FWHM (automatic mode), XRPD peak around 8.7 ± 0.2° 2θ, After [2, 10]: 0.58 ° 2θ
5 | O=C([O-])CCCCCCCNC(=O)c1ccccc1O.[Na+] [Batch 5, monosodium N-[8-(2-hydroxybenzoyl)-amino]caprylate] | 1.98 | 0.97 | – | – | – | Moisture absorption at 65% RH, After [1, 11]: 0.94%; FWHM (automatic mode), XRPD peak around 8.7 ± 0.2° 2θ, After [2, 11]: 0.58 ° 2θ
6 | O=C([O-])CCCCCCCNC(=O)c1ccccc1O.[Na+] [Batch 6, monosodium N-[8-(2-hydroxybenzoyl)-amino]caprylate] | – | – | 1.81 | 0.65 | 75 | –
7 | O=C([O-])CCCCCCCNC(=O)c1ccccc1O.[Na+] [Batch 7, monosodium N-[8-(2-hydroxybenzoyl)-amino]caprylate] | – | – | 2.06 | 0.61 | 70 | –
8 | O=C([O-])CCCCCCCNC(=O)c1ccccc1O.[Na+] [Batch 8, monosodium N-[8-(2-hydroxybenzoyl)-amino]caprylate] | – | – | 2.51 | 0.82 | 70 | Moisture absorption at 65% RH [1, 12]: 0.99%; FWHM (manual mode) [2, 12]: 0.47 °2θ; Onset of trihydrate conversion (form A to form F) [4, 12]: 80 % RH
9 | O=C([O-])CCCCCCCNC(=O)c1ccccc1O.[Na+] [Batch 9, monosodium N-[8-(2-hydroxybenzoyl)-amino]caprylate] | – | – | 1.29 | 0.60 | 80 | Moisture absorption at 65% RH [1, 12]: 0.98%; FWHM (manual mode) [2, 12]: 0.52 °2θ; Onset of trihydrate conversion (form A to form F) [4, 12]: 80 % RH
10 | O=C([O-])CCCCCCCNC(=O)c1ccccc1O.[Na+] [Batch 10, monosodium N-[8-(2-hydroxybenzoyl)-amino]caprylate] | – | – | – | – | – | Moisture absorption at 60% RH [1, 13]: 2.99%; Moisture absorption at 60% RH [5]: 1.19%; FWHM (auto mode) [2, 13]: 1.00 °2θ; FWHM (auto mode) ([2]; not ground): 0.79 °2θ
11 | O=C([O-])CCCCCCCNC(=O)c1ccccc1O.[Na+] [Batch 11, monosodium N-[8-(2-hydroxybenzoyl)-amino]caprylate, reference compound] | – | – | – | – | – | Moisture absorption at 65% RH [1, 14]: 2.62%; FWHM (auto mode) [2, 14]: 1.12 °2θ
12 | O=C([O-])CCCCCCCNC(=O)c1ccccc1O.[Na+] [Batch X, monosodium N-[8-(2-hydroxybenzoyl)-amino]caprylate] | – | – | – | – | – | Moisture absorption at 65% RH [6]: 1.50%; FWHM (manual mode) [7]: 0.90 °2θ
